Measurements published in patent US9232799B2, “N-[(het)arylethyl)] pyrazole(thio)carboxamides and their heterosubstituted analogues” (BAYER INTELLECTUAL PROPERTY GMBH, priority 2010, dated 2016).
Where “and” joins values, the source holds several entries; their conditions need not be identical. Equal values may be shown once. Read-outs that look alike come from different tables or passages of the source.

What was measured:
[1] = logP by HPLC on reversed-phase column (C 18), EEC Directive 79/831 Annex V.A8; type: physicochemical
Procedure: In table 1, the logP values were determined in accordance with EEC Directive 79/831 Annex V.A8 by HPLC (High Performance Liquid Chromatography) on a reversed-phase column (C 18), using the method described below: Temperature: 40° C.; […]

Alternaria solani = assay: In vivo preventive test on Alternaria solani (tomato); settings: evaluated 7 days after inoculation
From the text: One day after this treatment, the plants are inoculated with an aqueous spore suspension of Alternaria solani.

Pyrenophora teres = assay: In vivo preventive test on Pyrenophora teres (barley); settings: 500 ppm of active ingredient, evaluated 7-9 days after inoculation
From the text: One day after this treatment, the plants are inoculated with an aqueous spore suspension of Pyrenophora teres.

SMILES | logP [1] | other results
Cn1nc(C(F)F)c(C(=S)N(C2CC2)C2CCCCC2(C)c2ccccc2)c1F (mixture of isomers) [Example 219] |  | logP ([1]; HPLC on reversed-phase column (C 18), 40° C., 0.1% aqueous formic acid and acetonitrile, linear gradient 10% to 90% acetonitrile): 5.01 and 5.11
COC(CNC(=O)c1cn(C)nc1C(F)F)c1ccc(Cl)cc1Cl (stereo not shown) [1.02 from WO-2008/148570, N-[2-(2,4-dichlorophenyl)-2-methoxyethyl]-3-(difluoromethyl)-1-methyl-1H-pyrazole-4-carboxamide, reference compound] |  | Efficacy (Alternaria solani; 100 ppm of active ingredient): 40%; Efficacy (Alternaria solani; 100 ppm of active ingredient, listed as 1.02): less than 40%; Efficacy (Alternaria solani; 500 ppm of active ingredient): 80%; Efficacy (Alternaria solani; 500 ppm of active ingredient, listed as 1.02): at least 80%
Cn1nc(C(F)F)c(C(=O)N(CCc2ccccc2)C2CCCC2)c1F [Example 1] | 3.69 | 
CC(C)N(CCc1ccccc1)C(=O)c1c(C(F)F)nn(C)c1F [Example 2] | 3.19 | 
Cn1nc(C(F)F)c(C(=O)N(CCC#N)CCc2ccccc2)c1F [Example 3] | 2.39 | 
Cn1nc(C(F)F)c(C(=O)N(CCc2ccccc2)CC(F)(F)F)c1F [Example 5] | 3.25 | Efficacy (Pyrenophora teres): 80%
Cn1nc(C(F)F)c(C(=O)N(CCC#N)CCc2ccccc2)c1Cl [Example 8] | 2.53 | 
Cn1nc(C(F)F)c(C(=O)N(CCc2ccccc2)CC(F)(F)F)c1Cl [Example 10] | 3.39 | 
CC(C)N(CCc1ccc(F)cc1)C(=O)c1c(C(F)F)nn(C)c1F [Example 23] | 3.23 | 
Cn1nc(C(F)F)c(C(=O)NCC(C)(C)c2ccccc2Cl)c1F [Example 45] | 3.27 | Efficacy (Alternaria solani; 500 ppm of active ingredient): 90%; Efficacy (Pyrenophora teres): 100%
Cn1nc(C(F)F)c(C(=O)NCC(C)(C)c2cccc(Cl)c2)c1F [Example 53] | 3.31 | Efficacy (Alternaria solani; 500 ppm of active ingredient): 70%; Efficacy (Pyrenophora teres): 94%
CCN(CCc1ccc(Cl)cc1)C(=S)c1c(C(F)F)nn(C)c1F [Example 58] | 3.92 | Efficacy (Pyrenophora teres): 100%
Cn1nc(C(F)F)c(C(=O)NCC(C)(C)c2ccc(Cl)cc2)c1F [Example 63] | 3.37 | Efficacy (Alternaria solani; 500 ppm of active ingredient): 90%; Efficacy (Pyrenophora teres): 94%
Cn1nc(C(F)F)c(C(=O)NCC(C)(C)c2ccc(Cl)cc2)c1Cl [Example 64] | 3.58 | Efficacy (Alternaria solani; 500 ppm of active ingredient): 100%
Cn1nc(C(F)F)c(C(=O)NCC(C)(C)c2cc(Cl)cc(Cl)c2)c1F [Example 113] | 3.87 | Efficacy (Alternaria solani; 500 ppm of active ingredient): 80%; Efficacy (Pyrenophora teres): 90%
Cn1nc(C(F)F)c(C(=O)NCC(C)(C)c2cc(Cl)cc(Cl)c2)c1Cl [Example 114] | 4.01 | Efficacy (Pyrenophora teres): 80%
COc1ccc(CCN(C(=O)c2c(C(F)F)nn(C)c2F)C2CCCCC2)cc1OC [Example 130] | 3.42 | 
COc1ccc(CCN(C)C(=O)c2c(C(F)F)nn(C)c2Cl)cc1OC [Example 131] | 2.18 | 
Cc1cc(C)c(CCN(C(=O)c2c(C(F)F)nn(C)c2F)C(C)C)c(C)c1 [Example 134] | 4.30 | 
Cc1cc(C)c(CCN(C(=O)c2c(C(F)F)nn(C)c2Cl)C(C)C)c(C)c1 [Example 136] | 4.49 | 
Cc1cc(C)c(CCN(C)C(=O)c2c(C(F)F)nn(C)c2Cl)c(C)c1 [Example 137] | 3.67 | Efficacy (Alternaria solani; 500 ppm of active ingredient): 90%
Cn1nc(C(F)F)c(C(=O)NCCc2ccccc2Oc2ccccc2)c1Cl [Example 141] | 3.64 | Efficacy (Alternaria solani; 500 ppm of active ingredient): 80%
Cn1nc(C(F)F)c(C(=O)NC(C)(C)Cc2cccc(Oc3ccccc3)c2)c1Cl [Example 144] | 4.30 | Efficacy (Alternaria solani; 500 ppm of active ingredient): 95%
Cn1nc(C(F)F)c(C(=O)NCCc2cccc(Oc3ccccc3)c2)c1Cl [Example 145] | 3.55 | Efficacy (Alternaria solani; 500 ppm of active ingredient): 95%
Cn1nc(C(F)F)c(C(=O)NCC(C)(C)c2cccc(Oc3ccccc3)c2)c1F [Example 148] | 3.92 | 

SMILES | logP [1] | other results
Cn1nc(C(F)F)c(C(=O)NCC(C)(C)c2cccc(Oc3ccccc3)c2)c1Cl [Example 149] | 4.15 | 
Cn1nc(C(F)F)c(C(=O)NCC(C)(C)c2ccc(Oc3ccccc3)cc2)c1F [Example 157] | 4.06 | Efficacy (Pyrenophora teres): 80%
Cn1nc(C(F)F)c(C(=O)NCC(C)(C)c2ccc(Oc3ccccc3)cc2)c1Cl [Example 158] | 4.21 | Efficacy (Alternaria solani; 500 ppm of active ingredient): 80%
Cn1nc(C(F)F)c(C(=O)N(CCc2ccccn2)C2CCCCC2)c1F [Example 175] | 1.48 | 
Cn1nc(C(F)F)c(C(=O)N(CCc2ccccn2)C2CCCC2)c1F [Example 176] | 1.29 | 
COCCN(CCc1ccccn1)C(=O)c1c(C(F)F)nn(C)c1F [Example 177] | 0.50 | 
CC(C)N(CCc1ccccn1)C(=O)c1c(C(F)F)nn(C)c1F [Example 178] | 0.85 | 
CN(CCc1ccccn1)C(=O)c1c(C(F)F)nn(C)c1F [Example 179] | 1.47 | 
CN(CCc1ccccn1)C(=O)c1c(C(F)F)nn(C)c1Cl [Example 183] | 1.63 | 
COCCN(CCc1ccccn1)C(=O)c1c(C(F)F)nn(C)c1Cl [Example 184] | 0.63 | 
Cc1cccnc1CC(NC(=O)c1c(C(F)F)nn(C)c1Cl)C(F)(F)F (stereo not shown) [Example 186] | 1.70 | 
Cn1nc(C(F)F)c(C(=O)NCCc2ccc(Cl)nc2)c1Cl [Example 196] | 1.90 | 
Cn1nc(C(F)F)c(C(=O)NCCc2ccc(Cl)nc2)c1F [Example 197] | 1.78 | 
CC(C)N(CCc1ccncc1)C(=O)c1c(C(F)F)nn(C)c1F [Example 198] | 0.78 | 
COCCN(CCc1ccncc1)C(=O)c1c(C(F)F)nn(C)c1F [Example 199] | 1.56 | 
Cn1nc(C(F)F)c(C(=O)N(CCc2ccncc2)C2CCCCC2)c1F [Example 200] | 1.39 | 
Cn1nc(C(F)F)c(C(=O)N(CCc2ccncc2)C2CCCC2)c1F [Example 201] | 1.20 | 
CC(CN(C)C(=O)c1c(C(F)F)nn(C)c1F)c1ccncc1 (stereo not shown) [Example 206] | 1.60 | 
Cn1nc(C(F)F)c(C(=O)NCCc2c(F)c(F)nc(F)c2F)c1Cl [Example 209] | 2.60 | 
Cn1nc(C(F)F)c(C(=O)NC2CCCCC2c2ccccc2)c1F (stereo not shown) [Example 213] | 3.29 | Efficacy (Alternaria solani; 500 ppm of active ingredient): 89%
Cn1nc(C(F)F)c(C(=O)NC2CCCCC2c2ccccc2)c1Cl (stereo not shown) [Example 214] | 3.33 | 
Cn1nc(C(F)F)c(C(=O)NC2CC2c2ccc(F)cc2)c1Cl (stereo not shown) [Example 221] | 2.75 | 
Cn1nc(C(F)F)c(C(=O)NC2CC2c2cccc(F)c2)c1Cl (stereo not shown) [Example 223] | 2.75 | 
Cn1nc(C(F)F)c(C(=O)NC2CC2c2ccccc2C(F)(F)F)c1Cl (stereo not shown) [Example 226] | 3.15 | 
Cn1nc(C(F)F)c(C(=S)NC[Si](C)(C)c2ccc(Cl)cc2Cl)c1F [Example 241] | 4.74 | Efficacy (Pyrenophora teres): 100%

Now from value to compound, other results behind:

logP [1] | SMILES | other results
3.89 | Cn1nc(C(F)F)c(C(=O)N(CCc2ccccc2)C2CCCC2)c1Cl [Example 6] | 
3.35 | CC(C)N(CCc1ccccc1)C(=O)c1c(C(F)F)nn(C)c1Cl [Example 7] | 
2.60 | CN(CCc1ccccc1)C(=O)c1c(C(F)F)nn(C)c1Cl [Example 9] | Efficacy (Alternaria solani; 500 ppm of active ingredient): 95%; Efficacy (Pyrenophora teres): 95%
2.71 | CCN(C(=O)c1c(C(F)F)nn(C)c1Cl)C(C)C(=O)c1ccccc1 (stereo not shown) [Example 18] | 
3.37 | CC(C)N(CCc1ccc(F)cc1)C(=O)c1c(C(F)F)nn(C)c1Cl [Example 25] | 
3.57 | CC(Cc1c(F)cccc1F)N(C(=O)c1c(C(F)F)nn(C)c1Cl)C1CC1 (stereo not shown) [Example 27] | Efficacy (Alternaria solani; 500 ppm of active ingredient): 95%; Efficacy (Pyrenophora teres): 95%
3.48 | Cn1nc(C(F)F)c(C(=O)NCC(C)(C)c2ccccc2Cl)c1Cl [Example 46] | Efficacy (Alternaria solani; 500 ppm of active ingredient): 70%
3.17 | CC(Cc1cccc(Cl)c1)NC(=O)c1c(C(F)F)nn(C)c1Cl (stereo not shown) [Example 48] | Efficacy (Alternaria solani; 500 ppm of active ingredient): 95%; Efficacy (Pyrenophora teres): 100%
3.53 | Cn1nc(C(F)F)c(C(=O)NCC(C)(C)c2cccc(Cl)c2)c1Cl [Example 54] | 
3.35 | CCN(CCc1ccc(Cl)cc1)C(=O)c1c(C(F)F)nn(C)c1Cl [Example 57] | Efficacy (Alternaria solani; 500 ppm of active ingredient): 80%; Efficacy (Pyrenophora teres): 70%
2.68 | CN(CC(=O)c1ccc(Cl)cc1)C(=O)c1c(C(F)F)nn(C)c1Cl [Example 62] | 
4.11 | Cn1nc(C(F)F)c(C(=S)NCCc2ccc(Cl)cc2Cl)c1Cl [Example 72] | Efficacy (Alternaria solani; 500 ppm of active ingredient): 94%; Efficacy (Pyrenophora teres): 100%
4.72 | Cn1nc(C(F)F)c(C(=S)NCC(C)(C)c2ccc(Cl)cc2Cl)c1Cl [Example 89] | Efficacy (Pyrenophora teres): 100%
4.29 | CC(Cc1c(Cl)cccc1Cl)N(C(=O)c1c(C(F)F)nn(C)c1Cl)C1CC1 (stereo not shown) [Example 116] | Efficacy (Alternaria solani; 500 ppm of active ingredient): 100%; Efficacy (Pyrenophora teres): 100%
3.53 | COc1ccc(CCN(C(=O)c2c(C(F)F)nn(C)c2Cl)C2CCCCC2)cc1OC [Example 132] | 
1.58 | Cn1nc(C(F)F)c(C(=O)N(CCc2ccccn2)C2CCCCC2)c1Cl [Example 180] | 
1.40 | Cn1nc(C(F)F)c(C(=O)N(CCc2ccccn2)C2CCCC2)c1Cl [Example 181] | 
1.00 | CC(C)N(CCc1ccccn1)C(=O)c1c(C(F)F)nn(C)c1Cl [Example 182] | 
1.50 | Cn1nc(C(F)F)c(C(=O)N(CCc2ccncc2)C2CCCCC2)c1Cl [Example 203] | 
1.32 | Cn1nc(C(F)F)c(C(=O)N(CCc2ccncc2)C2CCCC2)c1Cl [Example 204] | 
0.98 | CC(C)N(CCc1ccncc1)C(=O)c1c(C(F)F)nn(C)c1Cl [Example 205] | 
4.51 | Cn1nc(C(F)F)c(C(=O)N(C[Si](C)(C)c2ccc3ccccc3c2)C2CC2)c1Cl [Example 246] | 
